Source: PMC7913927, “Leishmanicidal Activity of Betulin Derivatives in Leishmania amazonensis; Effect on Plasma and Mitochondrial Membrane Potential, and Macrophage Nitric Oxide and Superoxide Production” (Microorganisms, 2021)
Several values for one entry are separate records, joined by “and”; a condition that tells them apart may be missing. Identical values can stand only once. Like-named read-outs stand apart in the source and are kept apart here.

Legend:
[1] = test system: LTB0016 intracellular amastigotes in J774.1 macrophages; test: Macrophage-amastigote model, reference strain; type: cell-based, Leishmania amazonensis; conditions: for Growth (%) Exp1 Infección / Growth (%) Exp1 A/MØ / Growth (%) Exp1 A/100MØ / Growth (%) Exp1 %Control / Growth (%) Exp2 Infección / Growth (%) Exp2 A/MØ / Growth (%) Exp2 A/100MØ / Growth (%) Exp2 %Control / Growth (%) Exp3 Infección / Growth (%) Exp3 A/MØ / Growth (%) Exp3 A/100MØ / Growth (%) Exp3 %Control / Average A/100MØ: 72 h; for Growth (%) Exp1 Infección / Growth (%) Exp2 Infección / Growth (%) Exp3 Infección: % infected macrophages; for Growth (%) Exp1 A/MØ / Growth (%) Exp2 A/MØ / Growth (%) Exp3 A/MØ: amastigotes per infected macrophage; for Growth (%) Exp1 A/100MØ / Growth (%) Exp2 A/100MØ / Growth (%) Exp3 A/100MØ: infection index; for Growth (%) Exp1 %Control / Growth (%) Exp2 %Control / Growth (%) Exp3 %Control: infection index vs DMSO; for Average A/100MØ: average of Exp1-3
Experimental: We used a previously described methodology, with some modifications. Macrophage monolayers, grown in RMPIc medium, for 3 days, were detached from the bottom of the culture chamber, by physical treatment (low temperature and light strokes). Obtained macrophages were seeded in flat-bottom 96-well culture plates, at a density of 2 × 10^5 cells mL^−1 (40,000 macrophages/well), in a final volume of 200 µL. Plates were incubated for 2 h, and the supernatant was discarded to remove non-adhered macrophages. Medium was replaced with stationary-phase promastigotes suspended in 200 µL of RPMIc (2 × 10^6 parasites mL^−1, 400,000 parasites/well), at a macrophage: parasite ratio 1:10 [40]. The plates were incubated for 4 h. Afterwards the medium was replaced with fresh RPMIc and increasing concentrations of compounds or drugs tested were applied, in volumes of 2 µL, according to the different treatment groups. Plates were kept for 72 h, at 37 °C and 5% CO2. The medium was discarded and the wells were washed twice with PBS. Next, a Giemsa staining was performed in situ. It consisted of adding 200 µL of methanol/well, incubating for 5 min, discarding the fixative, and letting it dry at room temperature. Later, the Giemsa solution (10% in PBS w/v, 200 µL/well) was added, incubated for 10 min, and washed with PBS, allowing it to dry. Finally, the bottom of the plates was detached by percussion and the circular bottoms (wells) were fixed to slides with Permount synthetic resin, for later evaluation (Alcazar W., manuscript in preparation). Cell counting was performed with a 100× immersion objective. A minimum of 200 random macrophages were examined. The percentage of infected macrophages (% infection) and the average number of amastigotes present in infected macrophages (amastigotes) were determined. […] The infection rate represents the number of intracellular amastigotes per 100 macrophages evaluated. Additionally, the GI50 for the decrease in the infection rate was calculated. At least three independent experiments were performed. The effect of amphotericin-B (AmB) [Sigma-Aldrich, (St. Louis, MO, USA)] was included as positive control of the assay.

[2] = test system: L. (L.) braziliensis MHOM/BR/LTB300; parameters: method as in PMID 25240731; conditions: cited from earlier work

C=C(C)C1CCC2(C=NO)CCC3(C)C(CCC4C5(C)CCC(=NO)C(C)(C)C5CCC43C)C12 (stereo not drawn) [Compound 18]
SI (CC50/GI50) LTB0016 ([1]; J774.1 CC50 / intracellular amastigote GI50, Table 2): 240.45
Growth (%) Exp1 Infección ([1]; LTB0016, 0.10 µM): 52.43%
Growth (%) Exp1 A/MØ ([1]; LTB0016, 0.10 µM): 3.54
Growth (%) Exp1 A/100MØ ([1]; LTB0016, 0.10 µM): 185.69
Growth (%) Exp1 %Control ([1]; LTB0016, 0.10 µM): 70.78%
Growth (%) Exp2 Infección ([1]; LTB0016, 0.10 µM): 57.50%
Growth (%) Exp2 A/MØ ([1]; LTB0016, 0.10 µM): 3.36
Growth (%) Exp2 A/100MØ ([1]; LTB0016, 0.10 µM): 193.20
Growth (%) Exp2 %Control ([1]; LTB0016, 0.10 µM): 90.86%
Growth (%) Exp3 Infección ([1]; LTB0016, 0.10 µM): 41.73%
Growth (%) Exp3 A/MØ ([1]; LTB0016, 0.10 µM): 2.66
Growth (%) Exp3 A/100MØ ([1]; LTB0016, 0.10 µM): 111.00
Growth (%) Exp3 %Control ([1]; LTB0016, 0.10 µM): 62.52%
Average A/100MØ ([1]; LTB0016, 0.10 µM): 163.30
Growth (%) Exp1 Infección ([1]; LTB0016, 0.50 µM): 36.24%
Growth (%) Exp1 A/MØ ([1]; LTB0016, 0.50 µM): 3.35
Growth (%) Exp1 A/100MØ ([1]; LTB0016, 0.50 µM): 121.51
Growth (%) Exp1 %Control ([1]; LTB0016, 0.50 µM): 46.32%
Growth (%) Exp2 Infección ([1]; LTB0016, 0.50 µM): 32.38%
Growth (%) Exp2 A/MØ ([1]; LTB0016, 0.50 µM): 2.08
Growth (%) Exp2 A/100MØ ([1]; LTB0016, 0.50 µM): 67.35
Growth (%) Exp2 %Control ([1]; LTB0016, 0.50 µM): 31.68%
Growth (%) Exp3 Infección ([1]; LTB0016, 0.50 µM): 25.00%
Growth (%) Exp3 A/MØ ([1]; LTB0016, 0.50 µM): 2.29
Growth (%) Exp3 A/100MØ ([1]; LTB0016, 0.50 µM): 57.25
Growth (%) Exp3 %Control ([1]; LTB0016, 0.50 µM): 32.25%
Average A/100MØ ([1]; LTB0016, 0.50 µM): 82.04
Growth (%) Exp1 Infección ([1]; LTB0016, 1.00 µM): 10.68%
Growth (%) Exp1 A/MØ ([1]; LTB0016, 1.00 µM): 3.15
Growth (%) Exp1 A/100MØ ([1]; LTB0016, 1.00 µM): 33.68
Growth (%) Exp1 %Control ([1]; LTB0016, 1.00 µM): 12.84%
Growth (%) Exp2 Infección ([1]; LTB0016, 1.00 µM): 24.45%
Growth (%) Exp2 A/MØ ([1]; LTB0016, 1.00 µM): 1.29
Growth (%) Exp2 A/100MØ ([1]; LTB0016, 1.00 µM): 31.54
Growth (%) Exp2 %Control ([1]; LTB0016, 1.00 µM): 14.83%
Growth (%) Exp3 Infección ([1]; LTB0016, 1.00 µM): 17.20%
Growth (%) Exp3 A/MØ ([1]; LTB0016, 1.00 µM): 3.00
Growth (%) Exp3 A/100MØ ([1]; LTB0016, 1.00 µM): 51.60
Growth (%) Exp3 %Control ([1]; LTB0016, 1.00 µM): 29.06%
Average A/100MØ ([1]; LTB0016, 1.00 µM): 38.94
Growth (%) Exp1 Infección ([1]; LTB0016, 5.00 µM): 9.37%
Growth (%) Exp1 A/MØ ([1]; LTB0016, 5.00 µM): 1.83
Growth (%) Exp1 A/100MØ ([1]; LTB0016, 5.00 µM): 17.18
Growth (%) Exp1 %Control ([1]; LTB0016, 5.00 µM): 6.55%
Growth (%) Exp2 Infección ([1]; LTB0016, 5.00 µM): 17.07%
Growth (%) Exp2 A/MØ ([1]; LTB0016, 5.00 µM): 1.50
Growth (%) Exp2 A/100MØ ([1]; LTB0016, 5.00 µM): 25.61
Growth (%) Exp2 %Control ([1]; LTB0016, 5.00 µM): 12.04%
Growth (%) Exp3 Infección ([1]; LTB0016, 5.00 µM): 10.71%
Growth (%) Exp3 A/MØ ([1]; LTB0016, 5.00 µM): 2.75
Growth (%) Exp3 A/100MØ ([1]; LTB0016, 5.00 µM): 29.45
Growth (%) Exp3 %Control ([1]; LTB0016, 5.00 µM): 16.59%
Average A/100MØ ([1]; LTB0016, 5.00 µM): 24.08
Growth (%) Exp1 Infección ([1]; LTB0016, 10.00 µM): 5.40%
Growth (%) Exp1 A/MØ ([1]; LTB0016, 10.00 µM): 1.67
Growth (%) Exp1 A/100MØ ([1]; LTB0016, 10.00 µM): 9.00
Growth (%) Exp1 %Control ([1]; LTB0016, 10.00 µM): 3.43%
Growth (%) Exp2 Infección ([1]; LTB0016, 10.00 µM): 11.23%
Growth (%) Exp2 A/MØ ([1]; LTB0016, 10.00 µM): 1.20
Growth (%) Exp2 A/100MØ ([1]; LTB0016, 10.00 µM): 13.48
Growth (%) Exp2 %Control ([1]; LTB0016, 10.00 µM): 6.34%
Growth (%) Exp3 Infección ([1]; LTB0016, 10.00 µM): 3.48%
Growth (%) Exp3 A/MØ ([1]; LTB0016, 10.00 µM): 3.00
Growth (%) Exp3 A/100MØ ([1]; LTB0016, 10.00 µM): 10.44
Growth (%) Exp3 %Control ([1]; LTB0016, 10.00 µM): 5.88%
Average A/100MØ ([1]; LTB0016, 10.00 µM): 10.97
GI50 ([1]; LTB0016 intracellular amastigotes, GraphPad regression, read-out: GI50 (µM) Experiment 1 Regresion): 0.29 µM
GI50 ([1]; LTB0016 intracellular amastigotes, GraphPad regression, read-out: GI50 (µM) Experiment 2 Regresion): 0.34 µM
GI50 ([1]; LTB0016 intracellular amastigotes, GraphPad regression, read-out: GI50 (µM) Experiment 3 Regresion): 0.2 µM
GI50 ([1]; intracellular amastigotes, Supplementary Materials II, read-out: GI50 (µM) LTB0016, mean of three experiments): 0.278 µM and 0.28 µM
GI50 ([1]; summary bound for reference strain LTB0016 and patient isolates, read-out: GI50): < 1 µM
inhibition of parasite migration [2]: inhibited parasite migration at nano and picomolar concentrations
